Measurements: US20140341939A1 (NATIONAL UNIVERSITY CORPORATION KOCHI UNIVERSITY, priority 2011, published 2014)
Entries after “also recorded” stand apart in the source; their conditions may differ. Where two headings read alike, the source gives them in different places. Each block holds one compound with its values, some of them ahead of it. Where a SMILES comes first, the peptide text is derived from it. Where no end group is shown, it is not given here. [ ]: non-standard residue; d: D form. The star is where a group is joined. Biotin = O=C1N[C@H]2[C@H](CS[C@H]2CCCCC(=O)*)N1; βAla = NCCC(=O)O

What was measured:
serum peptidase [1] = test system: serum peptidase
Method: (§1) Peptide was digested in TBS containing 10% fresh mouse serum or fresh human serum. After incubation at 37° C. for a given time, 1% trifluoro acid was added to remove various serum proteins by precipitation. After short centrifugation, the soluble fraction was analyzed by reversed-phase HPLC using a C18 analysis column. To normalize variation in the total amount of the peptide loaded for each HPLC, the peak of non-protein components contained in the serum, which is absorbed at the wavelength of 220 nm, was used as an internal control. The peak area of undigested peptides was quantitatively monitored by Chromatopac C-R8A (Shimadzu Corp., Kyoto, Japan), and the amount of the remaining peptide was calculated.
(§2) Therefore, the inventor examined the digestion resistance of peptide in vitro in a 10% fresh mouse serum. The amount of a remaining undigested peptide was quantified by HPLC.

serum peptidase [2] = assay: Degradation of peptide in 10% fresh mouse serum (HPLC of remaining peptide)
Method: as §1, §2

[3] = test system: peptidase activity in the serum; assay: Effect of peptidase inhibitor on OVII peptide digestion by mouse serum; format: biochemical; settings: inhibitor-containing buffer (FIGS. 22-24)
Excerpt: Given the above-mentioned Examples, the inventor examined the effect of peptidase inhibitor on the peptide digestion to identify the peptidase in the serum.

DO11.10 cells = assay: Growth of CD4 T cells: proliferation of DO11.10 cells by OVII modified peptides (3H-thymidine); format: cell-based, mouse
EG7 tumor = assay: Antitumor activity by in vivo immunization with OVA-derived peptides (EL4 / EG7 tumor); settings: CBF1 mouse, peptide-loaded LPS blast i.p. 3 times; EL4 / EG7 tumor (FIG. 8)
Excerpt: CBF1 mouse was immunized with LPS blast of splenocyte pulsed with either λ repressor peptide ([…]; SEQ ID NO: 39) or OVAII peptide as a Th epitope peptide, and K^b-binding OVA-I peptide, which is a CTL inducing peptide. LPS blast derived from one spleen was pulsed with peptide, and intraperitoneally injected to immunize two mice. The next day of the third immunization, 9×10^6 EL4 cells and 1.2×10^7 EG7 cells were intradermally transplanted in a pair on the back skin of the mice. The tumor size was measured every other day. Immunization was performed once again 2 weeks from the tumor transplantation.
To verify the anti-tumor effect of inducing tumor-specific Th cells in vivo, the inventor compared the immunization protocol that induces 1. CTL alone, 2. CTL and a third party antigen-specific Th cell, and 3. CTL and tumor-specific Th cell. As the antigen presenting cell, LPS blast of spleen cell was used, and the APC loaded with each peptide alone or the mixture of each peptide was injected intraperitoneally 3 times (once per week). On the day of third immunization, 9×10^6 EL4 and 1.2×10^7 EG7 tumor were innoculated on the opposite sides of the back, and the tumor diameter was measured from day 4.

protection of peptide from digestion (serum peptidase [1]): protects about half of the peptide
Compound: CC[C@H](C)[C@H](N)C(=O)N[C@@H](CO)C(=O)N[C@@H](CCC(N)=O)C(=O)N[C@@H](C)C(=O)N[C@H](C(=O)N[C@@H](Cc1c[nH]cn1)C(=O)N[C@@H](C)C(=O)N[C@@H](C)C(=O)N[C@@H](Cc1c[nH]cn1)C(=O)N[C@@H](C)C(=O)N[C@@H](CCC(=O)O)C(=O)N[C@H](C(=O)N[C@@H](CC(N)=O)C(=O)N[C@@H](CCC(=O)O)C(=O)N[C@@H](C)C(=O)NCC(=O)NCCC(=O)O)[C@@H](C)CC)C(C)C [OVIIβ] (HELM PEPTIDE1{I.S.Q.A.V.H.A.A.H.A.E.I.N.E.A.G.[bAla]}$$$$V2.0; N-terminus and C-terminus assumed)

level of epitope remaining in the serum compared with POVIIPβ (serum peptidase [2]; mouse, serum): almost the same for both peptides
Compound: CC[C@H](C)[C@H](NC(=O)[C@H](CCC(=O)O)NC(=O)[C@H](C)NC(=O)[C@H](Cc1c[nH]cn1)NC(=O)[C@H](C)NC(=O)[C@H](C)NC(=O)[C@H](Cc1c[nH]cn1)NC(=O)[C@@H](NC(=O)[C@H](C)NC(=O)[C@H](CCC(N)=O)NC(=O)[C@H](CO)NC(=O)[C@@H](NC(=O)[C@H](CCCCNC(=O)CCCC[C@@H]1SC[C@@H]2NC(=O)N[C@@H]21)NC(=O)[C@H](CO)NC(=O)[C@@H]1CCCN1)[C@@H](C)CC)C(C)C)C(=O)N[C@@H](CC(N)=O)C(=O)N[C@@H](CCC(=O)O)C(=O)N[C@@H](C)C(=O)N[C@@H](CCCCNC(=O)CCCC[C@@H]1SC[C@@H]2NC(=O)N[C@@H]21)C(=O)N1CCC[C@H]1C(=O)NCCC(=O)O [PbOVIIbPβ] (H-PSK(Biotin)ISQAVHAAHAEINEAK(Biotin)P[βAla]-OH; N-terminus and C-terminus assumed)

digestion resistance to serum peptidases (in words) (serum peptidase [1]): no digestion resistance
Compound: CC[C@H](C)[C@H](NC(=O)[C@H](CCC(=O)O)NC(=O)[C@H](C)NC(=O)[C@H](Cc1c[nH]cn1)NC(=O)[C@H](C)NC(=O)[C@H](C)NC(=O)[C@H](Cc1c[nH]cn1)NC(=O)[C@@H](NC(=O)[C@H](C)NC(=O)[C@H](CCC(N)=O)NC(=O)[C@H](CO)NC(=O)[C@@H](NC(=O)[C@H](CCCCNC(=O)CCCC[C@@H]1SC[C@@H]2NC(=O)N[C@@H]21)NC(=O)[C@@H](N)CO)[C@@H](C)CC)C(C)C)C(=O)N[C@@H](CC(N)=O)C(=O)N[C@@H](CCC(=O)O)C(=O)N[C@@H](C)C(=O)N[C@@H](CCCNC(=N)N)C(=O)O [bOVII+] (H-SK(Biotin)ISQAVHAAHAEINEAR-OH; N-terminus and C-terminus assumed)

Compound: CC(C)C[C@H](NC(=O)[C@@H](O)[C@H](N)Cc1ccccc1)C(=O)O [bestatin]
inhibition of OVII peptide digestion / peptidase activity in serum [3]: about half of the peptidase activity was suppressed

Compound: C[C@H](CS)C(=O)N1CCC[C@H]1C(=O)O [captopril]
sensitization activity of OVII on addition of captopril (DO11.10 cells; 2.5 mM captopril in medium (FIGS. 14, 15)): improved the sensitization activity of OVII to a level close to that of OVIIPA peptide
survival of DO11.10 cells (DO11.10 cells; 5 mM captopril): cannot survive
inhibition of OVII peptide digestion / peptidase activity in serum [3]: suppressed in a concentration-dependent manner

Compound: Ac-ISQAVHAAHAEINEA [ac-OVII]
sensitization activity / Th inducing activity (in words) (DO11.10 cells; 10% FCS-DMEM, compared to OVII (FIG. 11)): almost no influence on the sensitization activity; also recorded: no difference from OVII
digestion resistance to serum peptidases (in words) (serum peptidase [1]): higher protection effect than the above-mentioned single modification of the C terminal side

protection of peptide from digestion (serum peptidase [2]; 10% fresh mouse serum, within 4 hr): protects about half of the peptide
Compound: ISQAVHAAHAEINEAPA [OVIIPA]

Compound: LEDARRLKAIYEKKK [X peptide, third party antigen peptide]
tumor control, Th peptide together with OVA-I (EG7 tumor): could delay tumor growth as compared to CTL single induction, but the mouse finally died

Compound: OVA-I: K^b-binding OVA-I peptide, which is a CTL inducing peptide (SIINFEKL; UniProt P01012 258-265, looked up, fragment)
tumor control, CTL-inducing peptide alone (EG7 tumor): tumor control was only possible to a limited degree
